Measured values: patent US20260022143A1, “Cyclic Peptide Inhibitors of IL-23” (JANSSEN PHARMACEUTICA NV, priority 2022, published 2026)
Where a name gives a salt, the structure may show the parent alone. Read-outs that look alike come from different tables or passages of the source. Positions of bridges follow the written chain, without caps; N, C: chain ends. Non-standard residues stand in square brackets, D forms with d. Residues, ends and D or L forms follow the SMILES beside them. *: point of attachment. Me3N+(CH2)2O(CH2)2O(CH2)2CO = C[N+](C)(C)CCOCCOCCC(=O)*; CH2CH2OCH2CH2OCH2CH2NMe3+ = C[N+](C)(C)CCOCCOCC*; Phe(4-N3) = [N-]=[N+]=Nc1ccc(C[C@H](N)C(=O)O)cc1; Trp(7-Me) = Cc1cccc2c(C[C@H](N)C(=O)O)c[nH]c12; d(hLys(Me3)) = C[N+](C)(C)CCCCC[C@@H](N)C(=O)O; 2Nal = N[C@@H](Cc1ccc2ccccc2c1)C(=O)O; AEF = NCCOc1ccc(C[C@H](N)C(=O)O)cc1; dNMeY = CN[C@H](Cc1ccc(O)cc1)C(=O)O; 3Pal = N[C@@H](Cc1cccnc1)C(=O)O; Lys(Me) = CNCCCC[C@H](N)C(=O)O; Pen = CC(C)(S)[C@H](N)C(=O)O; Thp = NC1(C(=O)O)CCOCC1; X3 = C[N+](C)(C)CCCCC*; Me2NCH2CH2 = CN(C)CC*; Tfa = O=C(C(F)(F)F)*; Sar = CNCC(=O)O; X2 = CNCC*

Legend:
IL-23R = molecular target: T1, IL-23R (Homo sapiens, UniProt Q5VWK5); experiment: IL23R Reporter Assay; format: cell-based; settings: HEK293 cells containing IL-23R, IL-12RP1 and STAT-inducible firefly luciferase reporter; 10 ng/mL IL-23 (EC90); 5 h at 37° C.; read-out: IL23R Reporter Assay
T1 construct: host or cells: HEK293
T1 sequence (Q5VWK5 24-629): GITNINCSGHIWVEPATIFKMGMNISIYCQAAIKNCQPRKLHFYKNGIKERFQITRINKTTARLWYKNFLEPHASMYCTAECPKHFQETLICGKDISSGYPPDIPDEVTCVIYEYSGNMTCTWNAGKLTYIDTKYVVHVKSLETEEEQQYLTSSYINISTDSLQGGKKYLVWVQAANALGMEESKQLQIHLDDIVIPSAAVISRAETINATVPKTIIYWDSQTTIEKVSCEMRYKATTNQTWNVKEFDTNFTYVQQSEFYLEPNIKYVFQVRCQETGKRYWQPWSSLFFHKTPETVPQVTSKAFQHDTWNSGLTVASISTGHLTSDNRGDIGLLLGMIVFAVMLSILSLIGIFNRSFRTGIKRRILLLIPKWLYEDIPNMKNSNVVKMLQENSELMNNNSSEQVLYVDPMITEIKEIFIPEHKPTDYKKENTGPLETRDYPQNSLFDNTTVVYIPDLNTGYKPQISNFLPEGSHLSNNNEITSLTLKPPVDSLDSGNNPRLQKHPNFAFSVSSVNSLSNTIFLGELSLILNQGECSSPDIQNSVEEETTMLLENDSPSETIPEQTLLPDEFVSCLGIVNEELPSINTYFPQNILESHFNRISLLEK

[1] = Exposed Polar Surface Area (EPSA); format: physicochemical; settings: SFC on Chirex 3014 column, sample 1 mM DMSO stock
Outline: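 Compounds, as 1 mM DMSO stock, were injected in duplicate onto an SFC Chirex 3014 column at 35 °C and eluted with a CO2/methanol (20 mM ammonium formate) gradient. EPSA values in Å^2 were derived from retention times using a linear fit to eight calibration standards, reinjected every 20 compounds.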

Row | Compound | IC50 (IL-23R) | EPSA ([1]; read-out: EPSA) | EPSA ([1]; listed as 2)
1 | CC(=O)N(C)CCCC[C@@H]1NC(=O)[C@H](Cc2c[nH]c3c(C)cccc23)NC(=O)[C@H]([C@@H](C)O)NC(=O)[C@H](CC(=O)N(C)C)NC(=O)[C@@H](NC(=O)CCOCCOCC[N+](C)(C)C)C(C)(C)SSC(C)(C)[C@@H](C(=O)N[C@@H](Cc2ccc(OCCOCCOCC[N+](C)(C)C)cc2)C(=O)N[C@@H](Cc2ccc3ccccc3c2)C(=O)NC2(C(=O)N[C@@H](CCC(=O)O)C(=O)N[C@@H](CC(N)=O)C(=O)N[C@@H](Cc3cccnc3)C(=O)N(C)CC(=O)N(C)C)CCOCC2)NC1=O [compound 184, cPEG3aCO-Pen(3)-N(N(Me)2)-T-7MeW-K(NMeAc)-Pen(3)-APEG3F-2Nal-THP-E-N-3Pya-Sar-CON(Me)2] ({Me3N+(CH2)2O(CH2)2O(CH2)2CO}-[Pen]D(NMe2)T[Trp(7-Me)][Lys(Me)](Ac)[Pen]Y(CH2CH2OCH2CH2OCH2CH2NMe3+)[2Nal][Thp]EN[3Pal][Sar]-NMe2; disulfide 1-6) | 3.4 nM | 142 A^2 | 
2 | CC(=O)N[C@@H]1C(=O)N[C@@H](C)C(=O)N[C@@H]([C@@H](C)O)C(=O)N[C@@H](Cc2c[nH]c3c(C)cccc23)C(=O)N[C@@H](C)C(=O)N[C@H](C(=O)N[C@@H](Cc2ccc(OCCN(C)C)cc2)C(=O)N[C@@H](Cc2ccc3ccccc3c2)C(=O)NC2(C(=O)N[C@@H](CCC(=O)O)C(=O)N[C@@H](CC(N)=O)C(=O)N[C@@H](Cc3cccnc3)C(=O)N(C)CC(=O)N(C)C)CCOCC2)C(C)(C)SSC1(C)C [compound 119] (Ac-[Pen]AT[Trp(7-Me)]A[Pen]Y(Me2NCH2CH2)[2Nal][Thp]EN[3Pal][Sar]-NMe2; disulfide 1-6 (inferred)) | 6.3 nM | 159 A^2 | 
3 | CC(=O)NCCCC[C@@H]1NC(=O)[C@H](Cc2c[nH]c3c(C)cccc23)NC(=O)[C@H]([C@@H](C)O)NC(=O)[C@H](CC(N)=O)NC(=O)[C@@H](NC(=O)[C@@H](CCCNC(=N)N)NC(C)=O)C(C)(C)SSC(C)(C)[C@@H](C(=O)N[C@@H](Cc2ccc(OCCN)cc2)C(=O)N[C@@H](Cc2ccc3ccccc3c2)C(=O)NC2(C(=O)N[C@@H](CCC(=O)O)C(=O)N[C@@H](CC(N)=O)C(=O)N[C@@H](Cc3cccnc3)C(=O)N(C)[C@H](Cc3ccc(O)cc3)C(N)=O)CCOCC2)NC1=O [compound 35, MeCO-r-Pen(3)-N-T-7MeW-K(Ac)-Pen(3)-AEF-2Nal-THp-E-N-3Pya-NMeDTyr-CONH2] (Ac-[dR][Pen]NT[Trp(7-Me)]K(Ac)[Pen][AEF][2Nal][Thp]EN[3Pal][dNMeY]-NH2; disulfide 2-7) | 3.4 nM | 184 A^2 | 
4 | CC(=O)NCCCC[C@@H]1NC(=O)[C@H](Cc2c[nH]c3c(C)cccc23)NC(=O)[C@H]([C@@H](C)O)NC(=O)[C@H](CC(=O)N(C)C)NC(=O)[C@@H](NC(=O)C(F)(F)F)C(C)(C)SSC(C)(C)[C@@H](C(=O)N[C@@H](Cc2ccc(OCCN)cc2)C(=O)N[C@@H](Cc2ccc3ccccc3c2)C(=O)NC2(C(=O)N[C@@H](CCCCNC(C)=O)C(=O)N[C@@H](CC(N)=O)C(=O)N[C@@H](Cc3cccnc3)C(=O)N(C)CC(N)=O)CCOCC2)NC1=O [compound 52, CF3CO-Pen(3)-N(N(Me)2)-T-7MeW-K(Ac)-Pen(3)-AEF-2Nal-THP-K(Ac)-N-3Pya-Sar-CONH2] (Tfa-[Pen]D(NMe2)T[Trp(7-Me)]K(Ac)[Pen][AEF][2Nal][Thp]K(Ac)N[3Pal][Sar]-NH2; disulfide 1-6 (inferred)) | 4.6 nM | 158 A^2 | 
5 | CNCCOc1ccc(C[C@H](NC(=O)[C@H]2NC(=O)[C@H](CCCCN(C)C(C)=O)NC(=O)[C@H](Cc3c[nH]c4c(C)cccc34)NC(=O)[C@H]([C@@H](C)O)NC(=O)[C@H](CC(=O)NC)NC(=O)[C@@H](NC(C)=O)C(C)(C)SSC2(C)C)C(=O)N[C@@H](Cc2ccc3ccccc3c2)C(=O)NC2(C(=O)N[C@@H](CCCCN(C)C(C)=O)C(=O)N[C@@H](CC(N)=O)C(=O)N[C@@H](Cc3cccnc3)C(=O)N(C)CC(=O)NC)CCOCC2)cc1 [SEQ ID 67] (Ac-[Pen]D(NHMe)T[Trp(7-Me)][Lys(Me)](Ac)[Pen]Y(X2)[2Nal][Thp][Lys(Me)](Ac)N[3Pal][Sar]-NHMe; disulfide 1-6 (inferred)) | 1050 nM | 150 A^2 | 184 Å^2

Further lines, results first:

Row | IC50 (IL-23R) | EPSA ([1]; read-out: EPSA) | EPSA ([1]; listed as 2) | Compound
6 | 0.89 nM | 151 A^2 |  | CC(=O)N[C@@H](COCCOCC[N+](C)(C)C)C(=O)N[C@@H]1C(=O)N[C@@H](CC(=O)N(C)C)C(=O)N[C@@H]([C@@H](C)O)C(=O)N[C@@H](Cc2c[nH]c3c(C)cccc23)C(=O)N[C@@H](CCCCN(C)C(C)=O)C(=O)N[C@H](C(=O)N[C@@H](Cc2ccc(OCCOCCOCC[N+](C)(C)C)cc2)C(=O)N[C@@H](Cc2ccc3ccccc3c2)C(=O)NC2(C(=O)N[C@@H](CCCCN(C)C(C)=O)C(=O)N[C@@H](CC(N)=O)C(=O)N[C@@H](Cc3cccnc3)C(=O)N(C)CC(=O)N(C)C)CCOCC2)C(C)(C)SSC1(C)C (relative stereo) [compound 318, MeCO-APEG2Ser(S*)-Pen(3)-N(N(Me)2)-T-7MeW-K(NMeAc)-Pen(3)-APEG3F-2Nal-THP-K(NMeAc)-N-3Pya-Sar-CON(Me)2]
7 | 6.6 nM | 158 A^2 |  | CC(=O)N[C@H](CCCCC[N+](C)(C)C)C(=O)N[C@@H]1C(=O)N[C@@H](CC(=O)N(C)C)C(=O)N[C@@H]([C@@H](C)O)C(=O)N[C@@H](Cc2c[nH]c3c(C)cccc23)C(=O)N[C@@H](CCCCN(C)C(C)=O)C(=O)N[C@H](C(=O)N[C@@H](Cc2ccc(OCCCCC[N+](C)(C)C)cc2)C(=O)N[C@@H](Cc2ccc3ccccc3c2)C(=O)NC2(C(=O)N[C@@H](CCCCN(C)C(C)=O)C(=O)N[C@@H](CC(N)=O)C(=O)N[C@@H](Cc3cccnc3)C(=O)N(C)CC(=O)N(C)C)CCOCC2)C(C)(C)SSC1(C)C [compound 344, MeCO-hk(Me)3-Pen(3)-N(N(Me)2)-T-7MeW-K(NMeAc)-Pen(3)-TMAPF-2Nal-THP-K(NMeAc)-N-3Pya-Sar-CON(Me)2] (Ac-[d(hLys(Me3))][Pen]D(NMe2)T[Trp(7-Me)][Lys(Me)](Ac)[Pen]Y(X3)[2Nal][Thp][Lys(Me)](Ac)N[3Pal][Sar]-NMe2; disulfide 2-7)
8 | 24 nM | 144 A^2 |  | COCC[N+](C)(C)CCc1cn(C[C@H](NC(=O)[C@H]2NC(=O)[C@H](CCCCN(C)C(C)=O)NC(=O)[C@H](Cc3c[nH]c4c(C)cccc34)NC(=O)[C@H]([C@@H](C)O)NC(=O)[C@H](CC(=O)N(C)C)NC(=O)[C@@H](NC(=O)CCOCCOCC[N+](C)(C)C)C(C)(C)SSC2(C)C)C(=O)N[C@@H](Cc2ccc3ccccc3c2)C(=O)NC2(C(=O)N[C@@H](CCCCN(C)C(C)=O)C(=O)N[C@@H](CC(N)=O)C(=O)N[C@@H](Cc3cccnc3)C(=O)N(C)CC(=O)N(C)C)CCOCC2)nn1 [compound 288, cPEG3aCO-Pen(3)-N(N(Me)2)-T-7MeW-K(NMeAc)-Pen(3)-TzlChmPEG-2Nal-THP-K(NMeAc)-N-3Pya-Sar-CON(Me)2]
9 | 1.2 nM | 166 A^2 |  | CC(=O)NCCCC[C@@H]1NC(=O)[C@H](Cc2c[nH]c3c(C)cccc23)NC(=O)[C@H]([C@@H](C)O)NC(=O)[C@H](CC(N)=O)NC(=O)[C@@H](NC(=O)CCOCCOCC[N+](C)(C)C)C(C)(C)SSC(C)(C)[C@@H](C(=O)N[C@@H](Cc2ccc(N=[N+]=[N-])cc2)C(=O)N[C@@H](Cc2ccc3ccccc3c2)C(=O)NC2(C(=O)N[C@@H](CCCCNC(C)=O)C(=O)N[C@@H](CC(N)=O)C(=O)N[C@@H](Cc3cccnc3)C(=O)N(C)CC(N)=O)CCOCC2)NC1=O [compound 418, cPEG3aCO-Pen(3)-N-T-7MeW-K(Ac)-Pen(3)-F(4N3)-2Nal-THP-K(Ac)-N-3Pya-Sar-CONH2] ({Me3N+(CH2)2O(CH2)2O(CH2)2CO}-[Pen]NT[Trp(7-Me)]K(Ac)[Pen][Phe(4-N3)][2Nal][Thp]K(Ac)N[3Pal][Sar]-NH2; disulfide 1-6)
10 | 4.6 nM | 168 A^2 |  | CC(=O)NCCCC[C@@H]1NC(=O)[C@H](Cc2c[nH]c3c(C)cccc23)NC(=O)[C@H]([C@@H](C)O)NC(=O)[C@H](CC(N)=O)NC(=O)[C@@H](NC(=O)CCCc2ccc(I)cc2)C(C)(C)SSC(C)(C)[C@@H](C(=O)N[C@@H](Cc2ccc(OCCCCC[N+](C)(C)C)cc2)C(=O)N[C@@H](Cc2ccc3ccccc3c2)C(=O)NC2(C(=O)N[C@@H](CCCCNC(C)=O)C(=O)N[C@@H](CC(N)=O)C(=O)N[C@@H](Cc3cccnc3)C(=O)N(C)CC(N)=O)CCOCC2)NC1=O [compound 547, IPBCO-Pen(3)-N-T-7MeW-K(Ac)-Pen(3)-TMAPF-2Nal-THP-K(Ac)-N-3Pya-Sar-CONH2]
